Source: patent US20090298820A1, “3-SUBSTITUTED-1H-PYRROLO[2,3-B]PYRIDINE AND 3-SUBSTITUTED-1H-PYRROLO[3,2-B]PYRIDINE COMPOUNDS, THEIR USE AS MTOR KINASE AND PI3 KINASE INHIBITORS, AND THEIR SYNTHESES” (Wyeth, priority 2008, published 2009)

Assays:
PI3Kα = PI3Kα (Homo sapiens, UniProt P42336); experiment: PI3K-alpha fluorescence polarization assay; format: biochemical; conditions: read-out: PI3Kα Median IC50
PI3Kγ = PI3Kγ (Homo sapiens, UniProt P48736); experiment: PI3K-gamma fluorescence polarization assay; format: biochemical; conditions: read-out: PI3Kγ Median IC50
PI3Kγ, sequence (P48736 whole entry, species assumed): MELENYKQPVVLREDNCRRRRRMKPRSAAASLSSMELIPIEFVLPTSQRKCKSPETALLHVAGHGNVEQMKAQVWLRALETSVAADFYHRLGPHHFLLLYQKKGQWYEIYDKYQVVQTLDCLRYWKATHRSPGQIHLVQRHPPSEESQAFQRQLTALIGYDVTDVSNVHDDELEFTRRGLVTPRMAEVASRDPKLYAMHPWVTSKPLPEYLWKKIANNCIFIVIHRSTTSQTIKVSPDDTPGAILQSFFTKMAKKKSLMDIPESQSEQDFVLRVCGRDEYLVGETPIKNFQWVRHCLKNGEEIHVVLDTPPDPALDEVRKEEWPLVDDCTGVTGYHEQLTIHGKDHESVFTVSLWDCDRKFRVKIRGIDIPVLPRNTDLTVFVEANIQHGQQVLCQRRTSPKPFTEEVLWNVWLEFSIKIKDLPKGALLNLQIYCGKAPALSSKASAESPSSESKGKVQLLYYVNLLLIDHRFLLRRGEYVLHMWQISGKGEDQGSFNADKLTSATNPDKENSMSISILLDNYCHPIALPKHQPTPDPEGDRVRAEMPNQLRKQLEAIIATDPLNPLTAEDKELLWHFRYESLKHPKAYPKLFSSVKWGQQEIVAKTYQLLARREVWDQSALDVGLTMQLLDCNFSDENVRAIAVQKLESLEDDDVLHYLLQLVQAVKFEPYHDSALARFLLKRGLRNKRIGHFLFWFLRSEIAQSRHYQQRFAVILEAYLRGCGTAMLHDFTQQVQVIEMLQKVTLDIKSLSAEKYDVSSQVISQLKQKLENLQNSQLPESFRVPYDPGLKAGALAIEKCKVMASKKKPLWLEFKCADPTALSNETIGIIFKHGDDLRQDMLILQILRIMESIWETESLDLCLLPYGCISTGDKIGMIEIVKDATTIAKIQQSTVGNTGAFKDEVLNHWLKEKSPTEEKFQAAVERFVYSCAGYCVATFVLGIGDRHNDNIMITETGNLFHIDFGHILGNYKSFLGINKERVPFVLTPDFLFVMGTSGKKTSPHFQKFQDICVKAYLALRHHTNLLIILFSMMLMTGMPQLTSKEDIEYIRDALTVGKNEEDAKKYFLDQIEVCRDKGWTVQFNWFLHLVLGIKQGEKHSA

mTOR = mTOR (Homo sapiens, UniProt P42345); experiment: mTOR enzyme assay (DELFIA format, His6-S6K substrate); format: biochemical; conditions: read-out: mTOR Kinase Median IC50

PI3Kα, sequence (P42336 whole entry, species assumed): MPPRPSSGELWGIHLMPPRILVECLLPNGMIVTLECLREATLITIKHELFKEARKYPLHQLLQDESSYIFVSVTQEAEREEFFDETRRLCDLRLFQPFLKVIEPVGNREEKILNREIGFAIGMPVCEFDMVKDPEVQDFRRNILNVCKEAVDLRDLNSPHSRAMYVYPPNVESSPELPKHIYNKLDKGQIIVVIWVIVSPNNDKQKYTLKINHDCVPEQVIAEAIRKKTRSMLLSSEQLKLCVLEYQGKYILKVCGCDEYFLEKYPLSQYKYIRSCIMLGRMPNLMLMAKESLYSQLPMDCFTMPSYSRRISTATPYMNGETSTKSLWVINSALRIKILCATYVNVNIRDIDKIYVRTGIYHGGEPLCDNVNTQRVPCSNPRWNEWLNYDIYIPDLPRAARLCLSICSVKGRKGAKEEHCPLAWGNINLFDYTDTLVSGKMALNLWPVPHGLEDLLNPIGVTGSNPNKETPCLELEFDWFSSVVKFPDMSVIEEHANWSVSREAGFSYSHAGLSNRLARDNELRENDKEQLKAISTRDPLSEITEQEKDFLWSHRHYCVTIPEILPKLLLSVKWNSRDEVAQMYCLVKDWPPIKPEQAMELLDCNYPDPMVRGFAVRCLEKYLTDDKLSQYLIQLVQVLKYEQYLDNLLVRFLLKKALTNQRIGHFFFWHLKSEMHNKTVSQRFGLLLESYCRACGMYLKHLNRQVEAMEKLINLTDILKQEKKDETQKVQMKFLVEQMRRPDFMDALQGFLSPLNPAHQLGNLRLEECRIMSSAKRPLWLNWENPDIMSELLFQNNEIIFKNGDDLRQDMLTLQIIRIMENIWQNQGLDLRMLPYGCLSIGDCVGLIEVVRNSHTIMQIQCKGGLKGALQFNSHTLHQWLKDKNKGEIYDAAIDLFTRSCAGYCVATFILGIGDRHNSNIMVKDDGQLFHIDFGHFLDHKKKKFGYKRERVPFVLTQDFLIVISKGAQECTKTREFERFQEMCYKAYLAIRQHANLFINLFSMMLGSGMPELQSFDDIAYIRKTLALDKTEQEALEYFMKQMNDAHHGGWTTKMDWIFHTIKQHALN
PI3Kα, sequence (P27986 whole entry partner, species assumed): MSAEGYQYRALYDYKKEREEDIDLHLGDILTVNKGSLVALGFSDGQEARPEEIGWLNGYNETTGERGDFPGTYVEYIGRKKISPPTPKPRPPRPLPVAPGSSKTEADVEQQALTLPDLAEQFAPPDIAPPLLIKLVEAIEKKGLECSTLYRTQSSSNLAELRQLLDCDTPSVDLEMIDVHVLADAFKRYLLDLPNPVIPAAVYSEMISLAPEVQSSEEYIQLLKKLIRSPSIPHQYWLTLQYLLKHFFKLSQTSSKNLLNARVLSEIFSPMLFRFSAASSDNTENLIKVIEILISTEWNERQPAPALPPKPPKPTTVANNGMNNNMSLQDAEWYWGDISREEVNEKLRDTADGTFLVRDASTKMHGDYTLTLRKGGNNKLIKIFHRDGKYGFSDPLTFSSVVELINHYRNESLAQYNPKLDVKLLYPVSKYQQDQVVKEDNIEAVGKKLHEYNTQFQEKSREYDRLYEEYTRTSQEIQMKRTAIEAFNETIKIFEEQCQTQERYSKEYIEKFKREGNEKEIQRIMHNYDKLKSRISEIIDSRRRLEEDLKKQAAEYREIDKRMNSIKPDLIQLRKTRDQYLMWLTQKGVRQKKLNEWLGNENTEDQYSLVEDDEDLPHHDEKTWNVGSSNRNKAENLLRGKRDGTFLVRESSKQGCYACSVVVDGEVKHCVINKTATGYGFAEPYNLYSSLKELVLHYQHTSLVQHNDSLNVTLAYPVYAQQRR

IC50 (PI3Kα) [nM] | IC50 (PI3Kγ) [nM] | IC50 (mTOR) [nM] | melting point | SMILES
65 | 38 | 1 | 154 to 160 °C | COCCC1CN(C(=O)c2ccc(-c3ccnc4c3c(/C=C3\Oc5cccc(O)c5C3=O)cn4C)cc2)CCO1 (stereo not shown) [Compound 305, (2Z)-4-hydroxy-2-{[4-(4-{[2-(2-methoxyethyl)morpholin-4-yl]carbonyl}phenyl)-1-methyl-1H-pyrrolo[2,3-b]pyridin-3-yl]methylidene}-1-benzofuran-3(2H)-one]
> 10000 | > 10000 | 58.5 | 233 to 235 °C | Cn1cc(/C=C2\Oc3ccc(NC(=O)OCCO)cc3C2=O)c2c(-c3ccccc3)ccnc21 [Compound 60, 2-hydroxyethyl {(2Z)-2-[(1-methyl-4-phenyl-1H-pyrrolo[2,3-b]pyridin-3-yl)methylene]-3-oxo-2,3-dihydro-1-benzofuran-5-yl}carbamate]
60 | 279 | 18 | 308 to 315 °C | CN(C)Cc1cccc(-c2ccnc3c2c(/C=C2\Oc4cccc(O)c4C2=O)cn3C)c1 [Compound 122, (2Z)-2-[(4-{3-[(dimethylamino)methyl]phenyl}-1-methyl-1H-pyrrolo[2,3-b]pyridin-3-yl)methylene]-4-hydroxy-1-benzofuran-3(2H)-one]
30 | 88 | 4.4 | 258 to 263 °C | Cn1cc(/C=C2\Oc3cccc(O)c3C2=O)c2c(N3CC4CC3CO4)ccnc21 (stereo not shown) [Compound 117, (2Z)-4-hydroxy-2-{[1-methyl-4-(2-oxa-5-azabicyclo[2.2.1]hept-5-yl)-1H-pyrrolo[2,3-b]pyridin-3-yl]methylene}-1-benzofuran-3(2H)-one]
128 | 643 | 11 | 197 to 205 °C (dec.) | CNC(=O)Nc1ccc2c(c1)C(=O)/C(=C/c1cn(C)c3nccc(N4CC5CCC4CO5)c13)O2 (stereo not shown) [Compound 279, 1-methyl-3-[(2Z)-2-{[1-methyl-4-(2-oxa-5-azabicyclo[2.2.2]oct-5-yl)-1H-pyrrolo[2,3-b]pyridin-3-yl]methylidene}-3-oxo-2,3-dihydro-1-benzofuran-5-yl]urea]
182 | 169 | 6.6 | 233 to 235 °C | Cn1cc(/C=C2\Oc3cccc(O)c3C2=O)c2c(-c3cccc(C(=O)N4CCCC4)c3)ccnc21 [Compound 103, (2Z)-4-hydroxy-2-({1-methyl-4-[3-(pyrrolidin-1-ylcarbonyl)phenyl]-1H-pyrrolo[2,3-b]pyridin-3-yl}methylene)-1-benzofuran-3(2H)-one]
15500 | 8210 | 25 | 230 to 235 °C (dec.) | Cn1cc(/C=C2\Oc3ccc(NC(=O)Nc4cccnc4)cc3C2=O)c2c(N3CCC(C(=O)Nc4ccncc4)CC3)ccnc21 [Compound 263, 1-{1-methyl-3-[(Z)-{3-oxo-5-[(pyridin-3-ylcarbamoyl)amino]-1-benzofuran-2(3H)-ylidene}methyl]-1H-pyrrolo[2,3-b]pyridin-4-yl}-N-pyridin-4-ylpiperidine-4-carboxamide]
243 | 781 | 64.5 | 158 to 163 °C | COCCN(C)CCCNC(=O)Nc1ccc2c(c1)C(=O)/C(=C/c1cn(C)c3nccc(N4CC5CCC(C4)O5)c13)O2 [Compound 242, 1-{3-[(2-methoxyethyl)(methyl)amino]propyl}-3-[(2Z)-2-{[1-methyl-4-(8-oxa-3-azabicyclo[3.2.1]oct-3-yl)-1H-pyrrolo[2,3-b]pyridin-3-yl]methylene}-3-oxo-2,3-dihydro-1-benzofuran-5-yl]urea]
106 | 104 | 5.7 | 308 to 310 °C | Cn1cc(/C=C2\Oc3cc(O)cc(O)c3C2=O)c2c(C#Cc3ccccc3)ccnc21 [Compound 39, (2Z)-4,6-dihydroxy-2-{[1-methyl-4-(phenylethynyl)-1H-pyrrolo[2,3-b]pyridin-3-yl]methylene}-1-benzofuran-3(2H)-one]
152 | 253 | 4.4 | 235 to 240 °C | Cn1cc(/C=C2\Oc3cccc(O)c3C2=O)c2c(N3CCCC(C(=O)N4CCCC4)C3)ccnc21 (stereo not shown) [Compound 109, (2Z)-4-hydroxy-2-({1-methyl-4-[3-(pyrrolidin-1-ylcarbonyl)piperidin-1-yl]-1H-pyrrolo[2,3-b]pyridin-3-yl}methylene)-1-benzofuran-3(2H)-one]
296 | 2590 | 7.5 | 227 to 235 °C | Cn1cc(/C=C2\Oc3ccc(NC(=O)Nc4cccnc4)cc3C2=O)c2c(N3CC4CCC3CO4)ccnc21 (stereo not shown) [Compound 277, 1-[(2Z)-2-{[1-methyl-4-(2-oxa-5-azabicyclo[2.2.2]oct-5-yl)-1H-pyrrolo[2,3-b]pyridin-3-yl]methylidene}-3-oxo-2,3-dihydro-1-benzofuran-5-yl]-3-pyridin-3-ylurea]
566 | 1110 | 13 | 222 to 226 °C | Cn1cc(/C=C2\Oc3ccc(NC(=O)Nc4cccnc4)cc3C2=O)c2c(N3CCOC(C)(C)C3)ccnc21 [Compound 301, 1-[(2Z)-2-{[4-(2,2-dimethylmorpholin-4-yl)-1-methyl-1H-pyrrolo[2,3-b]pyridin-3-yl]methylidene}-3-oxo-2,3-dihydro-1-benzofuran-5-yl]-3-pyridin-3-ylurea]
420 | 487 | 6.7 | 203 °C | CNC(=O)Nc1ccc2c(c1)C(=O)/C(=C/c1cn(C)c3nccc(N4CCC(C(=O)N(C)C)CC4)c13)O2 [Compound 168, N,N-dimethyl-1-{1-methyl-3-[(Z)-{5-[(methylcarbamoyl)amino]-3-oxo-1-benzofuran-2(3H)-ylidene}methyl]-1H-pyrrolo[2,3-b]pyridin-4-yl}piperidine-4-carboxamide]
41 | 132 | 8.5 | 270 to 275 °C | Cn1cc(/C=C2\Oc3cccc(O)c3C2=O)c2c(-c3ccc(CO)nc3)ccnc21 [Compound 76, (2Z)-4-hydroxy-2-({4-[6-(hydroxymethyl)pyridin-3-yl]-1-methyl-1H-pyrrolo[2,3-b]pyridin-3-yl}methylene)-1-benzofuran-3(2H)-one]
37 | 30 | 1.5 | 298 to 305 °C (dec.) | CNC(=O)Nc1ccc(-c2ccnc3c2c(/C=C2\Oc4cccc(O)c4C2=O)cn3C)cc1 [Compound 133, 1-(4-{3-[(Z)-(4-hydroxy-3-oxo-1-benzofuran-2(3H)-ylidene)methyl]-1-methyl-1H-pyrrolo[2,3-b]pyridin-4-yl}phenyl)-3-methylurea]
> 10000 | 1170 | 11.5 | 241 °C | CN(C)C(=O)C1CCN(c2ccnc3c2c(/C=C2\Oc4ccc(Br)cc4C2=O)cn3C)CC1 [Compound 169, 1-{3-[(Z)-(5-bromo-3-oxo-1-benzofuran-2(3H)-ylidene)methyl]-1-methyl-1H-pyrrolo[2,3-b]pyridin-4-yl}-N,N-dimethylpiperidine-4-carboxamide]
41 | 60 | 0.6 | 297 to 300 °C | Cn1cc(/C=C2\Oc3cc(O)cc(O)c3C2=O)c2c(N3CCCCCC3)ccnc21 [Compound 65, (2Z)-2-[(4-azepan-1-yl-1-methyl-1H-pyrrolo[2,3-b]pyridin-3-yl)methylene]-4,6-dihydroxy-1-benzofuran-3(2H)-one]
5900 | 7430 | > 4000 | 257 to 262 °C | Cn1cc(/C=C2\Oc3ccc(NS(C)(=O)=O)cc3C2=O)c2c(-c3ccccc3)ccnc21 [Compound 162, N-{(2Z)-2-[(1-methyl-4-phenyl-1H-pyrrolo[2,3-b]pyridin-3-yl)methylidene]-3-oxo-2,3-dihydro-1-benzofuran-5-yl}methanesulfonamide]
369 | 425 | 18 | 220 to 223 °C | CN(C)C(=O)c1cccc(-c2ccnc3c2c(/C=C2\Oc4cccc(O)c4C2=O)cn3C)c1 [Compound 121, 3-{3-[(Z)-(4-hydroxy-3-oxo-1-benzofuran-2(3H)-ylidene)methyl]-1-methyl-1H-pyrrolo[2,3-b]pyridin-4-yl}-N,N-dimethylbenzamide]
884 | 1930 | 25.5 | 225 to 260 °C | COCCC1CN(c2ccnc3c2c(/C=C2\Oc4ccc(NC(=O)Nc5cccnc5)cc4C2=O)cn3C)CCO1 (stereo not shown) [Compound 297, 1-[(2Z)-2-({4-[2-(2-methoxyethyl)morpholin-4-yl]-1-methyl-1H-pyrrolo[2,3-b]pyridin-3-yl}methylidene)-3-oxo-2,3-dihydro-1-benzofuran-5-yl]-3-pyridin-3-ylurea]
806 | > 10000 | 15 | 235 to 240 °C | CC1CC(C)CN(c2ccnc3c2c(/C=C2\Oc4cccc(O)c4C2=O)cn3C)C1 (stereo not shown) [Compound 100, (2Z)-2-{[4-(3,5-dimethylpiperidin-1-yl)-1-methyl-1H-pyrrolo[2,3-b]pyridin-3-yl]methylene}-4-hydroxy-1-benzofuran-3(2H)-one]

SMILES | IC50 (PI3Kα) [nM] | IC50 (PI3Kγ) [nM] | IC50 (mTOR) [nM] | melting point
Cn1cc(/C=C2\Oc3cccc(O)c3C2=O)c2c(-c3ccc(C(=O)N4CC5CCC(C4)O5)cc3)ccnc21 [Compound 144, (2Z)-4-hydroxy-2-({1-methyl-4-[4-(8-oxa-3-azabicyclo[3.2.1]oct-3-ylcarbonyl)phenyl]-1H-pyrrolo[2,3-b]pyridin-3-yl}methylidene)-1-benzofuran-3(2H)-one] | 57 | 77 | 0.6 | 296 to 298 °C
